Entries after “also recorded” stand apart in the source; their conditions may differ.
Tests used:
[1] = tested on: Japanese quail testis (gonadal growth); test: IOP infusion, testicular growth under long-day condition; type: in vivo, Japanese quail (Coturnix coturnix japonica); details: long-day condition (p<0.05)
Method: (§1) To assess directly whether T3 mediates photoperiodic response of gonads, the inventors studied the effect of intracerebroventricular (i.c.v.) infusion of T3 on gonadal growth. Vehicle and several doses of T3 and T4 were infused to third ventricle by osmotic mini pump and testicular size was measured before and after the infusion. […] Therefore, the inventors furthermore examined the effect of IOP infusion under long-day condition (FIG. 10b).

[2] = tested on: Japanese quail testis (gonadal growth); test: intracerebroventricular infusion by osmotic mini pump, testicular growth under short-day condition; type: in vivo, Japanese quail (Coturnix coturnix japonica); details: for testicular growth: i.c.v. infusion to third ventricle, several doses, short-day condition (light 8 hrs, dark 16 hrs), male Japanese quail
Method: as §1

[3] = tested on: Japanese quail gonadotropin release and gonadal growth; details: cited from earlier work; for photoperiodically induced gonadotropin secretion and gonadal growth: peripheral injection of pharmacological dose
[4] = cited from earlier work

In the case of `CCC(Cc1c(I)cc(I)c(N)c1I)C(=O)O` (stereo not shown) [IOP, lopanoic acid], the testicular growth [1] is reported as “can reduce testicular growth; also recorded: reduces testicular growth”.
In the case of `N[C@@H](Cc1cc(I)c(Oc2ccc(O)c(I)c2)c(I)c1)C(=O)O` [T3, 3,5,3′-triiodothyronine], the testicular growth [2] is reported as “mimics testicular growth with dose dependent manner”, the “testicular growth at the largest dose” value ([2]; i.c.v. infusion, largest dose, short-day condition) is reported as “testicular growth was not observed” and the “dose giving the greatest effect” value ([2]; intracerebroventricular administration to Japanese quail) is reported as 0.3 ng per day. The “photoperiodically induced gonadotropin secretion and gonadal growth” value [3] was “can mimic”.
In the case of `N[C@@H](Cc1cc(I)c(Oc2cc(I)c(O)c(I)c2)c(I)c1)C(=O)O` [T4, Thyroxine], the testicular growth [2] is given as “little effect”, the “photoperiodically induced gonadotropin secretion and gonadal growth” value [3] is given as “can mimic” and the “relative effectiveness to mimic gonadotropin release” value ([3]; peripheral injection) is given as “more effective than T3”. For the same compound, the “fraction of T4 converted to T3 in the blood” value [4] was “about ⅓” and the “fraction of T4 converted to reverse T3 (RT3) in the blood” value [4] was ~45%.
